For orientation: EC50 means the concentration giving half of the maximal effect.

Experimental findings from patent US20100317046A1, “Non-Endogenous, Constitutively Activated Versions of Human G Protein Coupled Receptor: FSHR” (priority 2002, published 2010) are described below.

The target in one assay is T1, endogenous FSHR ("WT") (Homo sapiens, UniProt P23945, E197A/L198V/N112T).
T1 construct: The 2.1 kb PCR fragment was then cloned into EcoRV-EcoRI site of CMVp expression vector; expressed in transfected cells
T1 sequence (P23945 18-695 N112T/E197A/L198V): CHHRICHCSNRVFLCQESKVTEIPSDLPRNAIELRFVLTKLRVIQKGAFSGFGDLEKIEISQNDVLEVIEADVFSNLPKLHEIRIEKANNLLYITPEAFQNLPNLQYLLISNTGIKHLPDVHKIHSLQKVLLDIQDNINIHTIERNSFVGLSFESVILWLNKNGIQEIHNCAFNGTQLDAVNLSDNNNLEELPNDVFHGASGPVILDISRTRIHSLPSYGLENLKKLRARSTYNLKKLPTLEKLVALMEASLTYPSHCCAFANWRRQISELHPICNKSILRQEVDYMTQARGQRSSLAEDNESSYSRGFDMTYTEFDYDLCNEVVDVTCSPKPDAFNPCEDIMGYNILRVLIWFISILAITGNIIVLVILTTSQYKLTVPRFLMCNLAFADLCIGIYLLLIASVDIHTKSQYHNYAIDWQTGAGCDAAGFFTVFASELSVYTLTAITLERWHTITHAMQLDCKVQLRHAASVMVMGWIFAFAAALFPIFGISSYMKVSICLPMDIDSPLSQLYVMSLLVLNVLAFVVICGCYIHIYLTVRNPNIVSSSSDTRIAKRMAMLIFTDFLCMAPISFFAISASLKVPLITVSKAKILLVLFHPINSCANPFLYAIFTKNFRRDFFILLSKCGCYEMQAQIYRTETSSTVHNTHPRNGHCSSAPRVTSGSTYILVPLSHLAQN
As to the kind of experiment: Alpha Screen cAMP accumulation, endogenous FSHR (WT). Type of assay: cell-based. The settings on record: 293 cells expressing WT FSHR, FIG. 3. The protocol: (§1) Approximately 12×10^6 293 cells are plated on a 15 cm tissue culture plate. Grown in DME High Glucose Medium containing ten percent fetal bovine serum and one percent sodium pyruvate, L-glutamine, and anti-biotics. Twenty-four hours following plating of 293 cells (or to ˜80% confluency), the cells are transfected using 12 μg of DNA. The 12 μg of DNA is combined with 60 μl of lipofectamine and 2 mL of DME High Glucose Medium without serum. The medium is aspirated from the plates and the cells are washed once with medium without serum. The DNA, lipofectamine, and medium mixture are added to the plate along with 10 mL of medium without serum. Following incubation at 37 degrees Celsius for four to five hours, the medium is aspirated and 25 ml of medium containing serum is added. Twenty-four hours following transfection, the medium is aspirated again, and fresh medium with serum is added. Forty-eight hours following transfection, the medium is aspirated and medium with serum is added containing geneticin (G418 drug) at a final concentration of 500 μg/mL. The transfected cells will undergo selection for positively transfected cells containing the G418 resistant gene. […]
(§2) The media from Example 3(b) above was aspirated and rinsed 1× with PBS (5-10 ml/flask). […] Following incubation, the wells were read on Alpha Quest and measured for light units. […]
A general note: cAMP levels reflect the balance of adenylyl cyclase and phosphodiesterase activity.

In assay [1] the target is T2, non-endogenous FSHR ("L460R") (Homo sapiens, UniProt P23945, E197A/L198V/L460R/N112T).
T2 construct: expressed in transfected cells
T2 sequence (P23945 18-695 N112T/E197A/L198V/L460R): T1 sequence (P23945 18-695 N112T/E197A/L198V) with L443R
Briefly: Alpha Screen cAMP accumulation, non-endogenous constitutively activated FSHR (L460R). It counts as cell-based. The conditions noted are these: L460R versus WT, FIG. 3. The protocol:
as §1, §2

Residue numbers refer to the chain shown, from its start.

For `CCCCCc1ccc(C(=O)N2CCCCC2C(=O)Nc2ccc3c(c2)c2ccccc2n3CC)c(=O)o1` (centres unmarked) [Compound A, 1-[(2-oxo-6-pentyl-2H-pyran)-3-carbonyl]-piperidine-2-carboxylic acid-3-(9-ethylcarbazolyl) amide], the EC50 at endogenous FSHR ("WT") was ~3 nM. The “efficacy for L460R version of FSHR compared with the WT receptor” value in assay [1] is reported as “better efficacy”.
